Reference: ChEMBL document CHEMBL4138175, “Newly designed organotin(IV) carboxylates with peptide linkage: Synthesis, structural elucidation, physicochemical characterizations and pharmacological investigations” (Eur J Med Chem, 2018)
The source made the active and inactive calls. The calls are words filed in the database; no cut-off is given here.

Key:
NCI-H157 [1] = assay: Cytotoxicity against human NCI-H157 cells at 100 uM after 48 hrs by sulforhodamine B assay; assay type: functional
NCI-H157 [2] = assay: Cytotoxicity against human NCI-H157 cells at 10 uM after 48 hrs by sulforhodamine B assay; assay type: functional
NCI-H157 [3] = assay: Cytotoxicity against human NCI-H157 cells at 1 uM after 48 hrs by sulforhodamine B assay; assay type: functional
NCI-H157 [4] = assay: Cytotoxicity against human NCI-H157 cells at 0.1 uM after 48 hrs by sulforhodamine B assay; assay type: functional
Leishmania major [5] = assay: Antileishmanial activity against Leishmania major promastigotes at 100 uM after 72 hrs by MTT assay relative to control; assay type: functional
Leishmania major [6] = assay: Antileishmanial activity against Leishmania major promastigotes at 10 uM after 72 hrs by MTT assay relative to control; assay type: functional
Leishmania major [7] = assay: Antileishmanial activity against Leishmania major promastigotes at 1 uM after 72 hrs by MTT assay relative to control; assay type: functional
Leishmania major [8] = assay: Antileishmanial activity against Leishmania major promastigotes at 0.1 uM after 72 hrs by MTT assay relative to control; assay type: functional
Klebsiella pneumoniae [9] = assay: Antibacterial activity against Klebsiella pneumoniae assessed as zone of inhibition after 24 to 48 hrs by well diffusion method; assay type: functional
Streptococcus pyogenes [10] = assay: Antibacterial activity against Streptococcus pyogenes assessed as zone of inhibition after 24 to 48 hrs by well diffusion method; assay type: functional
[11] = tested on: Staphylococcus epidermidis; assay: Antibacterial activity against Staphylococcus epidermidis assessed as zone of inhibition after 24 to 48 hrs by well diffusion method; assay type: functional
Staphylococcus aureus [12] = assay: Antibacterial activity against Staphylococcus aureus assessed as zone of inhibition after 24 to 48 hrs by well diffusion method; assay type: functional
Serratia marcescens [13] = assay: Antibacterial activity against Serratia marcescens assessed as zone of inhibition after 24 to 48 hrs by well diffusion method; assay type: functional
Pseudomonas aeruginosa [14] = assay: Antibacterial activity against Pseudomonas aeruginosa assessed as zone of inhibition after 24 to 48 hrs by well diffusion method; assay type: functional
Escherichia coli [15] = assay: Antibacterial activity against Escherichia coli assessed as zone of inhibition after 24 to 48 hrs by well diffusion method; assay type: functional
Klebsiella pneumoniae [16] = assay: Antibacterial activity against Klebsiella pneumoniae assessed as zone of inhibition by measuring activity index after 24 to 48 hrs by well diffusion method relative to tetracycline; assay type: functional, organism-based
Klebsiella pneumoniae [17] = assay: Antibacterial activity against Klebsiella pneumoniae assessed as zone of inhibition by measuring activity index after 24 to 48 hrs by well diffusion method relative to ampicillin; assay type: functional, organism-based
Klebsiella pneumoniae [18] = assay: Antibacterial activity against Klebsiella pneumoniae assessed as zone of inhibition by measuring activity index after 24 to 48 hrs by well diffusion method relative to amoxicillin; assay type: functional, organism-based
[19] = tested on: Staphylococcus epidermidis; assay: Antibacterial activity against Staphylococcus epidermidis assessed as zone of inhibition by measuring activity index after 24 to 48 hrs by well diffusion method relative to penicillin G; assay type: functional, organism-based
[20] = tested on: Staphylococcus epidermidis; assay: Antibacterial activity against Staphylococcus epidermidis assessed as zone of inhibition by measuring activity index after 24 to 48 hrs by well diffusion method relative to ampicillin; assay type: functional, organism-based
Serratia marcescens [21] = assay: Antibacterial activity against Serratia marcescens assessed as zone of inhibition by measuring activity index after 24 to 48 hrs by well diffusion method relative to penicillin G; assay type: functional
Serratia marcescens [22] = assay: Antibacterial activity against Serratia marcescens assessed as zone of inhibition by measuring activity index after 24 to 48 hrs by well diffusion method relative to ampicillin; assay type: functional
Serratia marcescens [23] = assay: Antibacterial activity against Serratia marcescens assessed as zone of inhibition by measuring activity index after 24 to 48 hrs by well diffusion method relative to amoxicillin; assay type: functional
Pseudomonas aeruginosa [24] = assay: Antibacterial activity against Pseudomonas aeruginosa assessed as zone of inhibition by measuring activity index after 24 to 48 hrs by well diffusion method relative to tetracycline; assay type: functional, organism-based
Pseudomonas aeruginosa [25] = assay: Antibacterial activity against Pseudomonas aeruginosa assessed as zone of inhibition by measuring activity index after 24 to 48 hrs by well diffusion method relative to penicillin G; assay type: functional, organism-based
Pseudomonas aeruginosa [26] = assay: Antibacterial activity against Pseudomonas aeruginosa assessed as zone of inhibition by measuring activity index after 24 to 48 hrs by well diffusion method relative to amoxicillin; assay type: functional, organism-based
Escherichia coli [27] = assay: Antibacterial activity against Escherichia coli assessed as zone of inhibition by measuring activity index after 24 to 48 hrs by well diffusion method relative to tetracycline; assay type: functional
DNA [28] = assay: Binding affinity to single-stranded DNA (unknown origin) after 10 mins by UV-visible spectrometric method; assay type: nucleic-acid assay
NCI-H157 [29] = assay: Cytotoxicity against human NCI-H157 cells after 48 hrs by sulforhodamine B assay; assay type: functional, cell-based
DNA [30] = assay: Binding affinity to single-stranded DNA (unknown origin) assessed as red shift up to 72 uM after 10 mins by UV-visible spectrometric method; assay type: nucleic-acid assay
[31] = tested on: Staphylococcus epidermidis; assay: Antibacterial activity against Staphylococcus epidermidis assessed as zone of inhibition by measuring activity index after 24 to 48 hrs by well diffusion method relative to tetracycline; assay type: functional, organism-based
[32] = tested on: Staphylococcus epidermidis; assay: Antibacterial activity against Staphylococcus epidermidis assessed as zone of inhibition by measuring activity index after 24 to 48 hrs by well diffusion method relative to amoxicillin; assay type: functional, organism-based
Pseudomonas aeruginosa [33] = assay: Antibacterial activity against Pseudomonas aeruginosa assessed as zone of inhibition by measuring activity index after 24 to 48 hrs by well diffusion method relative to ampicillin; assay type: functional, organism-based
Escherichia coli [34] = assay: Antibacterial activity against Escherichia coli assessed as zone of inhibition by measuring activity index after 24 to 48 hrs by well diffusion method relative to penicillin G; assay type: functional, organism-based
Escherichia coli [35] = assay: Antibacterial activity against Escherichia coli assessed as zone of inhibition by measuring activity index after 24 to 48 hrs by well diffusion method relative to ampicillin; assay type: functional, organism-based
Escherichia coli [36] = assay: Antibacterial activity against Escherichia coli assessed as zone of inhibition by measuring activity index after 24 to 48 hrs by well diffusion method relative to amoxicillin; assay type: functional, organism-based
DNA [37] = assay: Binding affinity to single-stranded DNA (unknown origin) assessed as DNA intercalation by measuring increase in relative viscosity of DNA-compound complex by viscometry; assay type: nucleic-acid assay
Staphylococcus aureus [38] = assay: Antibacterial activity against Staphylococcus aureus assessed as zone of inhibition by measuring activity index after 24 to 48 hrs by well diffusion method relative to tetracycline; assay type: functional, organism-based
Staphylococcus aureus [39] = assay: Antibacterial activity against Staphylococcus aureus assessed as zone of inhibition by measuring activity index after 24 to 48 hrs by well diffusion method relative to penicillin G; assay type: functional, organism-based
Staphylococcus aureus [40] = assay: Antibacterial activity against Staphylococcus aureus assessed as zone of inhibition by measuring activity index after 24 to 48 hrs by well diffusion method relative to ampicillin; assay type: functional, organism-based
Staphylococcus aureus [41] = assay: Antibacterial activity against Staphylococcus aureus assessed as zone of inhibition by measuring activity index after 24 to 48 hrs by well diffusion method relative to amoxicillin; assay type: functional, organism-based
Serratia marcescens [42] = assay: Antibacterial activity against Serratia marcescens assessed as zone of inhibition by measuring activity index after 24 to 48 hrs by well diffusion method relative to tetracycline; assay type: functional, organism-based
Streptococcus pyogenes [43] = assay: Antibacterial activity against Streptococcus pyogenes assessed as zone of inhibition by measuring activity index after 24 to 48 hrs by well diffusion method relative to tetracycline; assay type: functional, organism-based
Streptococcus pyogenes [44] = assay: Antibacterial activity against Streptococcus pyogenes assessed as zone of inhibition by measuring activity index after 24 to 48 hrs by well diffusion method relative to penicillin G; assay type: functional, organism-based
Streptococcus pyogenes [45] = assay: Antibacterial activity against Streptococcus pyogenes assessed as zone of inhibition by measuring activity index after 24 to 48 hrs by well diffusion method relative to ampicillin; assay type: functional, organism-based
Streptococcus pyogenes [46] = assay: Antibacterial activity against Streptococcus pyogenes assessed as zone of inhibition by measuring activity index after 24 to 48 hrs by well diffusion method relative to amoxicillin; assay type: functional, organism-based
Klebsiella pneumoniae [47] = assay: Antibacterial activity against Klebsiella pneumoniae assessed as zone of inhibition by measuring activity index after 24 to 48 hrs by well diffusion method relative to penicillin G; assay type: functional, organism-based

Substance	Activity (NCI-H157 [1]) [%]	Activity (NCI-H157 [2]) [%]	Activity (NCI-H157 [3]) [%]	Activity (NCI-H157 [4]) [%]	Activity (Leishmania major [5]) [%]	Activity (Leishmania major [6]) [%]	Activity (Leishmania major [7]) [%]	Activity (Leishmania major [8]) [%]	inhibition zone (IZ) (Klebsiella pneumoniae [9])	inhibition zone (IZ) (Streptococcus pyogenes [10])	inhibition zone (IZ) [11]	inhibition zone (IZ) (Staphylococcus aureus [12])	inhibition zone (IZ) (Serratia marcescens [13])	inhibition zone (IZ) (Pseudomonas aeruginosa [14])	inhibition zone (IZ) (Escherichia coli [15])	Activity index (Klebsiella pneumoniae [16])	Activity index (Klebsiella pneumoniae [17])	Activity index (Klebsiella pneumoniae [18])	Activity index (Pseudomonas aeruginosa [24])	Activity (NCI-H157 [29])	further results
(1,10-Phenanthroline) trimethylstannyl 2-(4-methoxy-2-nitrophenylcarbamoyl)benzoate	55.5	52.4	47.1	44	52.7	58.4	57.9	56.2	27.7 mm	15 mm	inactive	5.66 mm	20 mm	11.3 mm	20.7 mm	1.98	4.61	4.61	1.89	Dose-dependent effect	Activity_index [19]: inactive; Activity_index [20]: inactive; Activity index (Serratia marcescens [21]): 2.5; Activity index (Serratia marcescens [22]): 2.5; Activity index (Serratia marcescens [23]): 3.34; Activity index (Pseudomonas aeruginosa [25]): 1.89; Activity index (Pseudomonas aeruginosa [26]): 1.89; Activity index (Escherichia coli [27]): 10.3; K (DNA [28]): 2.5 ×10⁴ /M; Activity (DNA [30]): < 3 nm
Triethylstannyl 2-(4-methoxy-2-nitrophenylcarbamoyl)benzoate	62.4	57.4	43.7	39.8	56.4	53.2	49.4	45.3	27.7 mm	15.7 mm	11 mm	19.3 mm	15.3 mm	inactive	inactive	1.98	4.61	4.61	–	Dose-dependent effect	Activity index [31]: 1.1; Activity index [32]: 5.5; Activity index (Serratia marcescens [21]): 1.92; Activity index (Serratia marcescens [22]): 1.92; Activity index (Serratia marcescens [23]): 2.55; Activity_index (Pseudomonas aeruginosa [33]): inactive; Activity_index (Escherichia coli [34]): inactive; Activity_index (Escherichia coli [35]): inactive; Activity_index (Escherichia coli [36]): inactive; Activity (DNA [37]): Active; K (DNA [28]): 9.3 ×10³ /M; Activity (DNA [30]): < 3 nm
Tricyclohexylstannyl 2-(4-methoxy-2-nitrophenylcarbamoyl)benzoate	59.3	54	50.6	43.6	67.8	63.5	58.8	55.2	18.5 mm	16.7 mm	12.3 mm	inactive	inactive	18.7 mm	inactive	1.32	3.09	3.09	3.11	Dose-dependent effect	Activity index [31]: 1.23; Activity index [32]: 6.17; Activity_index (Staphylococcus aureus [38]): inactive; Activity_index (Staphylococcus aureus [39]): inactive; Activity_index (Staphylococcus aureus [40]): inactive; Activity_index (Staphylococcus aureus [41]): inactive; Activity_index (Serratia marcescens [42]): inactive; Activity index (Pseudomonas aeruginosa [25]): 3.11; Activity index (Pseudomonas aeruginosa [26]): 3.11
Dimethylstannanediyl bis 2-(4-methoxy-2-nitrophenylcarbamoyl)benzoate	55.6	53.4	51.2	48.9	62.3	54.7	51.6	48.4	25.2 mm	inactive	13.3 mm	13.7 mm	inactive	inactive	1.77 mm	1.8	4.2	4.2	–	Dose-dependent effect	Activity_index (Streptococcus pyogenes [43]): inactive; Activity_index (Streptococcus pyogenes [44]): inactive; Activity_index (Streptococcus pyogenes [45]): inactive; Activity_index (Streptococcus pyogenes [46]): inactive; Activity index [31]: 1.33; Activity index [32]: 6.65; Activity_index (Serratia marcescens [42]): inactive; Activity_index (Pseudomonas aeruginosa [33]): inactive; Activity index (Escherichia coli [27]): 0.88; Activity_index (Escherichia coli [34]): inactive; Activity_index (Escherichia coli [35]): inactive; Activity_index (Escherichia coli [36]): inactive
Trimethylstannyl 2-(4-methoxy-2-nitrophenylcarbamoyl)benzoate	66.4	62.3	58.2	54.4	67.8	66.5	62.9	58.8	20.2 mm	7.33 mm	10.3 mm	4.66 mm	13.3 mm	15.7 mm	16.7 mm	1.44	3.44	3.44	2.61	Dose-dependent effect	Activity index [31]: 1.03; Activity index [32]: 5.17; Activity index (Serratia marcescens [21]): 1.67; Activity index (Serratia marcescens [22]): 1.67; Activity index (Serratia marcescens [23]): 2.22; Activity index (Pseudomonas aeruginosa [25]): 2.61; Activity index (Pseudomonas aeruginosa [26]): 2.61; Activity index (Escherichia coli [27]): 8.33; Activity (DNA [37]): Active; K (DNA [28]): 4.2 ×10³ /M; Activity (DNA [30]): < 3 nm
Diphenylstannanediyl bis 2-(4-methoxy-2-nitrophenylcarbamoyl)benzoate	73.9	67.1	59.6	55.5	71.2	65.5	60.4	56.6	inactive	7.33 mm	inactive	inactive	inactive	10 mm	inactive	–	–	–	1.67	Dose-dependent effect	Activity_index (Klebsiella pneumoniae [47]): inactive; Activity_index [19]: inactive; Activity_index [20]: inactive; Activity_index (Staphylococcus aureus [38]): inactive; Activity_index (Staphylococcus aureus [39]): inactive; Activity_index (Staphylococcus aureus [40]): inactive; Activity_index (Staphylococcus aureus [41]): inactive; Activity_index (Serratia marcescens [42]): inactive; Activity index (Pseudomonas aeruginosa [25]): 1.67; Activity index (Pseudomonas aeruginosa [26]): 1.67; Activity_index (Escherichia coli [34]): inactive; Activity_index (Escherichia coli [35]): inactive; Activity_index (Escherichia coli [36]): inactive
